Measured values published in US9527839B2, “Benzimidazole tetrahydropyran derivatives” (Merck Sharp & Dohme Corp., priority 2012, dated 2016).

How the values were obtained:
[1] = system: ob/ob and db/db mice; conditions: following 8 weeks of administration; cited from earlier work
[2] = target: recombinant human AMPK complex 1 (containing α1β1γ1) (Homo sapiens (Human), UniProt Q13131+Q9Y478); test: In vitro AMPK activation assay (AMPKSAMSF), complex 1; type: biochemical; conditions: recombinant human AMPK complex 1 (α1β1γ1); for % Maximum AMP Activation of human AMPK Complex 1: 10-point titration
recombinant human AMPK complex 1 (containing α1β1γ1), sequence (Q13131 whole entry): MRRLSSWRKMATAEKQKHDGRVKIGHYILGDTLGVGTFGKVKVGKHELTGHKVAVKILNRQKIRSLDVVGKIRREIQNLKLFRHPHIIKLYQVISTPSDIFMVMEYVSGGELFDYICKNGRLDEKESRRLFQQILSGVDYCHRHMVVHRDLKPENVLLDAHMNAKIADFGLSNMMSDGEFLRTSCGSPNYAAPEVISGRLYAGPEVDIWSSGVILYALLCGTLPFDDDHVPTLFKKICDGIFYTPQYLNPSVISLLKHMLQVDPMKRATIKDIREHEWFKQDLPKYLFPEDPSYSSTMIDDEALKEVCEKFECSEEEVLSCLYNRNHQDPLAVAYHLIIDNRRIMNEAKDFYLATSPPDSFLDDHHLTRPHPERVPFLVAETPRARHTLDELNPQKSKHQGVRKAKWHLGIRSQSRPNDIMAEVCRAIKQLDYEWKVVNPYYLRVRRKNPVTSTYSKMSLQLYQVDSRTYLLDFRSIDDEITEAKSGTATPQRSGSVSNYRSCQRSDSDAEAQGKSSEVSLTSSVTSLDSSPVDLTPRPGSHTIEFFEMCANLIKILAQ
recombinant human AMPK complex 1 (containing α1β1γ1), sequence (Q9Y478 whole entry): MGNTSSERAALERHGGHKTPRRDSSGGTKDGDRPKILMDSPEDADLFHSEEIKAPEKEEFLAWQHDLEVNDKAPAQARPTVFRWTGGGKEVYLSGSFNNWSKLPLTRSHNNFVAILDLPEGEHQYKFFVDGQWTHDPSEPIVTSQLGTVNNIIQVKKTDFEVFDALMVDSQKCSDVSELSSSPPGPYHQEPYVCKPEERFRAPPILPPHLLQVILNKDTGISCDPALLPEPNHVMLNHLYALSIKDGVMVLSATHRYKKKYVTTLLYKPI
recombinant human AMPK complex 1 (containing α1β1γ1), sequence (P54619 whole entry partner): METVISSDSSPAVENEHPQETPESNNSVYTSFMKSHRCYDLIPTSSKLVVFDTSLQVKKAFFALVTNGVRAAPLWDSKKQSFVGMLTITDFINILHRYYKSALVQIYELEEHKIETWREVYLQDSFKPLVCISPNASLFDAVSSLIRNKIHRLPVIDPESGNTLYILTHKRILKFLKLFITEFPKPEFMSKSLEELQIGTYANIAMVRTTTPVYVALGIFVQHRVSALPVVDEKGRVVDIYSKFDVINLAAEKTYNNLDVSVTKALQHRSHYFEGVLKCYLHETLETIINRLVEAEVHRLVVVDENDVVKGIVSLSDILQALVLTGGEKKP
Protocol: (§1) The recombinant human AMPK complex 1 (containing α1β1γ1) or AMPK complex 7 (containing α2β1γ1) was obtained from baculovirus expression system. Recombinant viruses were generated by cotransfection of AMPK/pBacPak9 clones with Baculogold baculovirus DNA (Pharmingen) in spodoptera frugiperda 21 cells according to the manufacturer's instructions. Each round of virus amplification was performed for 5 days in Grace's medium containing 10% serum. Virus that had been subjected to three rounds of amplification was used for all protein production procedures. To express the AMPK complex, sf21 cells were adapted to serum free medium (SF900 II, Invitrogen) by sequential dilution from serum containing stocks into SF900II medium and maintained in shaker flasks at 90 rpm at 27° C. The recombinant AMPK enzyme complex was produced by triple infection, one recombinant virus for each of the subunits, in sf21 cells under serum free conditions. Cells were infected in log phase, 1×10^6 cells/ml, at a multiplicity of infection of 5. Cells were harvested by centrifugation at 10,000×g for 15 minutes after 72 hours of infection with viruses. The insect cell pellet from 2 liters of culture was resuspended in 50 ml lysis buffer (20 mM Tris-HCl, 50 mM NaCl, 50 mM NaF, 30 mM Na PPi, 0.25 M sucrose, 10 mM ZnCl2, 2 mM DTT, 0.4 mg/ml digitonin) and subjected to two cycles of freeze-thaw lysis in a dry-ice ethanol bath. Insoluble material was removed by centrifugation at 10,000×g and the supernatant was fractionated with use of polyethylene glycol (PEG). The protein fraction precipitating between 2.5 and 6% PEG was used for further purification using a Blue-Sepharose step (Zhou et al, J. Clin. Invest. 108, 1167-1174, 2001).
(§2) The in vitro AMPK activation assay is performed in a volume of 30 μl in a 384-well plate. Enzyme reactions were assembled in the microtiter plate by adding 15 μl of 2X enzyme in assay buffer (20 mM HEPES, pH 7.3, 5 mM MgCl2, 3 mM DTT, 0.01% Brij 35 and CamK Kinase, to activate AMPK) to wells which contained either DMSO or compound. The reaction was initiated with the addition of 15 μl 2× substrate mixture containing 200 μM ATP, and 3.0 μM fluorescently labeled SAMS (5-FAM-HMRSAMSGLHLVKRR-COOH) in assay buffer. After 45-minute incubation at 25° C., the reaction was stopped by the addition of 70 μl stop buffer (100 mM HEPES, pH 7.3, 40 mM EDTA, 0.015% Brij 35). Phosphorylated 5-FAM SAMS product is assessed using a Caliper EZ Reader LabChip microfluidics reader. Product conversion is determined by calculating the peak heights of the substrate and product and reporting the product/(product+substrate) peak ratio. The 10-point titration data were expressed as % maximum AMP activation. The results were plotted using 4 parameter fit and the inflection point reflecting 50% of the maximum activation was reported as the EC50.

[3] = target: recombinant human AMPK complex 7 (containing α2β1γ1) (Homo sapiens (Human), UniProt P54646+Q9Y478); test: In vitro AMPK activation assay (AMPKSAMSF), complex 7; type: biochemical; conditions: recombinant human AMPK complex 7 (α2β1γ1); for Emax: 10-point titration, read-out: % Maximum AMP Activation of human AMPK Complex 7
recombinant human AMPK complex 7 (containing α2β1γ1), sequence (P54646 whole entry): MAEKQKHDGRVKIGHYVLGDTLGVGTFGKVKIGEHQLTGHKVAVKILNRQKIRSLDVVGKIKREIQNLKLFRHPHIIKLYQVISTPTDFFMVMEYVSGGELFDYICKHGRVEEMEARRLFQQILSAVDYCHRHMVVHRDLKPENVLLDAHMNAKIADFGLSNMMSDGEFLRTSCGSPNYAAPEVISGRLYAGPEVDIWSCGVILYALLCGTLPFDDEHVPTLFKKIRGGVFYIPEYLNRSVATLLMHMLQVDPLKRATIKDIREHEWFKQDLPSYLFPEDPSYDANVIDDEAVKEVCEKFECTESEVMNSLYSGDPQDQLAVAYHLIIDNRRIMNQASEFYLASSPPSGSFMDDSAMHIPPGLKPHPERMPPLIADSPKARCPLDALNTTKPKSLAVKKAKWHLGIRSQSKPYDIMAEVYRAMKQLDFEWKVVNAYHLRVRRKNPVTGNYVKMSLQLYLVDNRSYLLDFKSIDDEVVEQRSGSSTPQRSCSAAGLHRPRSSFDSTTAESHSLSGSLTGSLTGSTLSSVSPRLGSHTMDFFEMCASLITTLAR
recombinant human AMPK complex 7 (containing α2β1γ1), sequence (Q9Y478 whole entry): as the sequence (Q9Y478 whole entry) above
recombinant human AMPK complex 7 (containing α2β1γ1), sequence (P54619 whole entry partner): as the sequence (P54619 whole entry partner) above
Protocol: as §1, §2

Structure (SMILES) | EC50 [3] [nM] | Emax [3] [%] | blood glucose reduction [1] [%] | EC50 [2] [nM] | % Maximum AMP Activation of human AMPK Complex 1 [2] [%]
NC(=O)c1ncn([C@@H]2O[C@H](CO)[C@@H](O)[C@H]2O)c1N [AICAR] |  |  | 35 |  | 
CS(=O)(=O)Cc1ccc(-c2ccc(-c3cc4nc(O[C@H]5CO[C@H](CO)[C@@H](O)C5)[nH]c4cc3Cl)cc2)cc1 [Example 2] |  |  |  | 36 | 490
OC[C@H]1OC[C@H](Oc2nc3cc(-c4ccc(-c5ccc(-c6nccc(O)n6)cc5)cc4)c(Cl)cc3[nH]2)C[C@@H]1O [Example 6] | 7 | 373 |  |  | 
OC[C@H]1OC[C@H](Oc2nc3cc(-c4ccc(-c5ccc(C6CNCCO6)cc5)cc4)c(Cl)cc3[nH]2)C[C@@H]1O (stereo partly drawn) [Example 8] | 12 | 348 |  |  | 
N=c1nc(N)[nH]n1-c1ccc(-c2ccc(-c3cc4nc(O[C@H]5CO[C@H](CO)[C@@H](O)C5)[nH]c4cc3Cl)cc2)cc1 [Example 16] | 7 | 373 |  |  | 
CS(=O)(=O)c1ccc(-c2ccc(-c3c(F)cc4[nH]c(O[C@H]5CO[C@H](CO)[C@@H](O)C5)nc4c3F)cc2)cc1 [Example 26] |  |  |  | 7 | 558
CC(C)(O)c1ccc(-c2ccc(-c3c(F)cc4[nH]c(O[C@H]5CO[C@H](CO)[C@@H](O)C5)nc4c3F)cc2)cc1 [Example 29] |  |  |  | 26 | 492
OC[C@H]1OC[C@H](Oc2nc3c(F)c(-c4ccc(-c5ccc(C6CNCCO6)cc5)cc4)c(F)cc3[nH]2)C[C@@H]1O (stereo partly drawn) [Example 36] | 3 | 327 |  |  | 
OC[C@H]1OC[C@H](Oc2nc3c(F)c(-c4ccc(-c5ccc(-c6nccs6)cc5)cc4)c(F)cc3[nH]2)C[C@@H]1O [Example 39] | 13 | 192 |  |  | 
N=c1nc(N)[nH]n1-c1ccc(-c2ccc(-c3c(F)cc4[nH]c(O[C@H]5CO[C@H](CO)[C@@H](O)C5)nc4c3F)cc2)cc1 [Example 40] | 5 | 387 |  |  | 
O=C(O)CCCc1ccc(-c2ccc(-c3c(F)cc4[nH]c(O[C@H]5CO[C@H](CO)[C@@H](O)C5)nc4c3F)cc2)cc1 [Example 44] | 11 | 426 |  |  | 
OC[C@H]1OC[C@H](Oc2nc3c(F)c(-c4ccc(-c5ccc(-c6nnc(O)o6)cc5)cc4)c(F)cc3[nH]2)C[C@@H]1O [Example 47] | 7 | 328 |  |  | 
CNC(=O)c1ccc(-c2ccc(-c3c(F)cc4[nH]c(O[C@H]5CO[C@H](CO)[C@@H](O)C5)nc4c3F)cc2)cc1 [Example 48] | 2 | 414 |  |  | 
CC(C)(O)Cc1cnn(-c2ccc(-c3ccc(-c4c(F)cc5[nH]c(O[C@H]6CO[C@H](CO)[C@@H](O)C6)nc5c4F)cc3)cc2)c1 [Example 50] | 7 | 403 |  |  | 

The remaining compounds from weak to strong by EC50 [3], led by results:

EC50 [3] [nM] | Emax [3] [%] | Structure (SMILES) | blood glucose reduction [1] [%] | EC50 [2] [nM] | % Maximum AMP Activation of human AMPK Complex 1 [2] [%]
18 | 387 | OC[C@H]1OC[C@H](Oc2nc3cc(-c4ccc(-c5ccc(-c6nnn[nH]6)cc5)cc4)c(Cl)cc3[nH]2)C[C@@H]1O [Example 23] |  |  | 
18 | 360 | CC(C)(O)Cc1cnn(-c2ccc(-c3ccc(-c4cc5nc(O[C@H]6CO[C@H](CO)[C@@H](O)C6)[nH]c5cc4Cl)cc3)cc2)c1 [Example 24] |  |  | 
17 | 266 | OC[C@H]1OC[C@H](Oc2nc3c(F)c(-c4ccc(-c5ccc(-c6ncco6)cc5)cc4)c(F)cc3[nH]2)C[C@@H]1O [Example 38] |  |  | 
15 | 392 | O=C1NCCC1c1ccc(-c2ccc(-c3cc4nc(O[C@H]5CO[C@H](CO)[C@@H](O)C5)[nH]c4cc3Cl)cc2)cc1 (stereo partly drawn) [Example 19] |  |  | 
14 | 364 | O=S(=O)(c1ccc(-c2ccc(-c3cc4nc(O[C@H]5CO[C@H](CO)[C@@H](O)C5)[nH]c4cc3Cl)cc2)cc1)C1CCNCC1 [Example 18] |  |  | 
9 | 400 | OC[C@H]1OC[C@H](Oc2nc3cc(-c4ccc(-c5ccc(-n6cncn6)cc5)cc4)c(Cl)cc3[nH]2)C[C@@H]1O [Example 21] |  |  | 
9 | 419 | OC[C@H]1OC[C@H](Oc2nc3c(F)c(-c4ccc(-c5ccc(-c6nnn[nH]6)cc5)cc4)c(F)cc3[nH]2)C[C@@H]1O [Example 49] |  |  | 
8 | 401 | O=S(=O)(c1ccc(-c2ccc(-c3c(F)cc4[nH]c(O[C@H]5CO[C@H](CO)[C@@H](O)C5)nc4c3F)cc2)cc1)C1CCNCC1 [Example 42] |  |  | 
6 | 333 | CC(CO)(CO)c1ccc(-c2ccc(-c3cc4nc(O[C@H]5CO[C@H](CO)[C@@H](O)C5)[nH]c4cc3Cl)cc2)cc1 [Example 7] |  |  | 
4 | 398 | O=C1NCCC1c1ccc(-c2ccc(-c3c(F)cc4[nH]c(O[C@H]5CO[C@H](CO)[C@@H](O)C5)nc4c3F)cc2)cc1 (stereo partly drawn) [Example 43] |  |  | 
3 | 370 | OC[C@H]1OC[C@H](Oc2nc3c(F)c(-c4ccc(-c5ccc(-c6nccc(O)n6)cc5)cc4)c(F)cc3[nH]2)C[C@@H]1O [Example 35] |  |  | 
2 | 391 | OC[C@H]1OC[C@H](Oc2nc3c(F)c(-c4ccc(-c5ccc(-n6cncn6)cc5)cc4)c(F)cc3[nH]2)C[C@@H]1O [Example 45] |  |  | 
